Laboratory results as given in ChEMBL document CHEMBL1151056, “The preparation and utilization of paraherquamide-2-O-methyl imidate in the synthesis of 14-O-substituted paraherquamide derivatives” (Bioorg Med Chem Lett, 1992).
Converted amounts (≈) assume the structure as drawn. Blank lines part the entries; values can stand above or below the molecule they belong to.

Experiments:
Caenorhabditis elegans = test: In vitro inhibition against Caenorhabditis elegans motility for anthelmintic activity was measured; assay type: functional, organism-based
Ovis aries [1] = test: Evaluated for the anthelmintic activity against Trichostrongylus colubriformis in sheep at dose of 2 mg/kg; value ranges from 91-100%; assay type: functional
Ovis aries [2] = test: Evaluated for the anthelmintic activity against Haemonchus contortus in sheep at dose of 2 mg/kg; value ranges from 91-100%; assay type: functional
Ovis aries [3] = test: Evaluated for the anthelmintic activity against Oesophagostomum columbianum in sheep at dose of 0.5 mg/kg; assay type: functional
Ovis aries [4] = test: Evaluated for the anthelmintic activity against Oesophagostomum columbianum in sheep at dose of 2 mg/kg; value ranges from 51-75%; assay type: functional
Ovis aries [5] = test: Evaluated for the anthelmintic activity against Ostertagia circumcincta in sheep at dose of 0.5 mg/kg; value ranges from 91-100%; assay type: functional
Ovis aries [6] = test: Evaluated for the anthelmintic activity against Ostertagia circumcincta in sheep at dose of 2 mg/kg; value ranges from 91-100%; assay type: functional
Ovis aries [7] = test: Evaluated for the anthelmintic activity against Trichostrongylus axei in sheep at dose of 0.5 mg/kg; value ranges from 91-100%; assay type: functional
Ovis aries [8] = test: Evaluated for the anthelmintic activity against Trichostrongylus axei in sheep at dose of 2 mg/kg; value ranges from 91-100%; assay type: functional
Ovis aries [9] = test: Evaluated for the anthelmintic activity against Trichostrongylus colubriformis in sheep at dose of 0.5 mg/kg; value ranges from 91-100%; assay type: functional
Ovis aries [10] = test: Evaluated for the anthelmintic activity against Cooperia species in sheep at dose of 0.5 mg/kg; value ranges from 91-100%; assay type: functional
Ovis aries [11] = test: Evaluated for the anthelmintic activity against Cooperia species in sheep at dose of 2 mg/kg; value ranges from 91-100%; assay type: functional
Ovis aries [12] = test: Evaluated for the anthelmintic activity against Haemonchus contortus in sheep at dose of 0.5 mg/kg; value ranges from 91-100%; assay type: functional

IC50 (Caenorhabditis elegans): 70 µg/mL (≈ 138 µM)
SMILES: CO[C@]1(C)CCN2CC34CC5(C(=O)Nc6c5ccc5c6OC=CC(C)(C)O5)C(C)(C)C3CC21C(=O)N4C (stereo partly specified)

IC50 (Caenorhabditis elegans): 5 µg/mL (≈ 9.1 µM)
SMILES: CCCCO[C@]1(C)CCN2CC34CC5(C(=O)Nc6c5ccc5c6OC=CC(C)(C)O5)C(C)(C)C3CC21C(=O)N4C (stereo partly specified)

IC50 (Caenorhabditis elegans): 60 µg/mL (≈ 98.7 µM)
SMILES: CNC(=O)N(C)C(=O)O[C@]1(C)CCN2CC34CC5(C(=O)Nc6c5ccc5c6OC=CC(C)(C)O5)C(C)(C)C3CC21C(=O)N4C (stereo partly specified)

IC50 (Caenorhabditis elegans): 7.5 µg/mL (≈ 14.1 µM)
SMILES: C#CCO[C@]1(C)CCN2CC34CC5(C(=O)Nc6c5ccc5c6OC=CC(C)(C)O5)C(C)(C)C3CC21C(=O)N4C (stereo partly specified)

IC50 (Caenorhabditis elegans): 2 µg/mL (≈ 3.83 µM)
SMILES: CCO[C@]1(C)CCN2CC34CC5(C(=O)Nc6c5ccc5c6OC=CC(C)(C)O5)C(C)(C)C3CC21C(=O)N4C (stereo partly specified)

IC50 (Caenorhabditis elegans): 20 µg/mL (≈ 34.4 µM)
SMILES: COCCOCO[C@]1(C)CCN2CC34CC5(C(=O)Nc6c5ccc5c6OC=CC(C)(C)O5)C(C)(C)C3CC21C(=O)N4C (stereo partly specified)

IC50 (Caenorhabditis elegans): 15 µg/mL (≈ 28.1 µM)
SMILES: C=CCO[C@]1(C)CCN2CC34CC5(C(=O)Nc6c5ccc5c6OC=CC(C)(C)O5)C(C)(C)C3CC21C(=O)N4C (stereo partly specified)
Reduction (Ovis aries [1]): 91%
Reduction (Ovis aries [2]): 91%
Reduction (Ovis aries [3]): <50%
Reduction (Ovis aries [4]): 51%
Reduction (Ovis aries [5]): 91%
Reduction (Ovis aries [6]): 91%
Reduction (Ovis aries [7]): 91%
Reduction (Ovis aries [8]): 91%
Reduction (Ovis aries [9]): 91%
Reduction (Ovis aries [10]): 91%
Reduction (Ovis aries [11]): 91%
Reduction (Ovis aries [12]): 91%

IC50 (Caenorhabditis elegans): 65 µg/mL (≈ 111 µM)
SMILES: CN1C(=O)C23CC4C1(CN2CC[C@@]3(C)OCc1ccccc1)CC1(C(=O)Nc2c1ccc1c2OC=CC(C)(C)O1)C4(C)C (stereo partly specified)

IC50 (Caenorhabditis elegans): 3 µg/mL (≈ 5.3 µM)
SMILES: CN1C(=O)C23CC4C1(CN2CC[C@@]3(C)O[Si](C)(C)C)CC1(C(=O)Nc2c1ccc1c2OC=CC(C)(C)O1)C4(C)C (stereo partly specified)
